Test results: patent US20230365568A1, “PLK1 POLO BOX DOMAIN INHIBITORS AND METHOD OF TREATING CANCER” (The United States of America,as represented by the …, priority 2020, published 2023)
Like-named read-outs stand apart in the source and are kept apart here. Marks after values point to notes of the source that are not given here. Each block holds one compound with its values, some of them ahead of it.

Columns and labels:
[1] = tested on: HeLa cells; experiment: Mitotic arrest and antiproliferation in HeLa cells (DAPI staining, cell counts); type: cell-based; conditions: for population of rounded cells with mitotically arrested or apoptotic chromosome morphologies: 25 μM, 12 h; for induction of mitotic arrest (rounded cells with apoptotic or aberrant chromosome morphologies): 100 μM
Protocol: HeLa cells were cultured as recommended by the American Type Culture Collection (ATCC). […] Immunostaining was carried out using anti-Plk1 (Santa Cruz Biotechnology, Santa Cruz, CA), anti-Cep63 (MilliporeSigma), anti-CREST (Antibodies Incorp, Davis, CA), and anti-α-tubulin (Sigma, St. Louis, MO) antibodies.
(§1) To quantify fluorescence signal intensities, images were acquired under the same settings and the images obtained after the maximum-intensity projection of z-stacks were analyzed using the Zeiss ZEN v2.1 software (Carl Zeiss Microscopy, LLC). All the quantifications were performed with randomly chosen fields from at least three independent experiments. All values are given as mean±s. D. P values were calculated by unpaired t test from the mean data of each group in Graph Pad Prism (***P<0.001). The statistical details including the definitions and value of n (e.g., number of experimental replicates, cells, etc.) And standard deviations are provided herein.

[2] = tested on: multiple myeloma-derived L363 cells; experiment: MTS cell proliferation assay in L363 cells; type: cell-based; conditions: for GI50: read-out: Cell efficacy, GI50 ± sd
Protocol: MTS Assay. […] 96™ AQueous One Solution Cell Proliferation Assay (MTS) kit (Promega, WI). Briefly, asynchronously growing L363 cells cultured in a 96-well plate were treated with the indicated compounds for 48 h.

[3] = Aqueous solubility
[4] = Microsomal metabolic stability, rat liver microsomes (RLM)
[5] = Stability in rat cytosol; type: in vitro ADME; conditions: for half-life: read-out: t1/2 Rat cytosol
[6] = Stability in mouse cytosol; type: in vitro ADME; conditions: for half-life: read-out: t1/2 Mouse cytosol
[7] = Stability in human liver microsomes; type: in vitro ADME; conditions: for half-life: read-out: t1/2 Human LM
[8] = Stability in human cytosol; type: in vitro ADME; conditions: for half-life: read-out: t1/2 Human cytosol
[9] = Stability in rat liver microsomes (Table 10); type: in vitro ADME; conditions: for half-life: read-out: t1/2 Rat LM
[10] = Stability in mouse liver microsomes; type: in vitro ADME; conditions: for half-life: read-out: t1/2 Mouse LM
[11] = PAMPA permeability
[12] = tested on: Plk1 localization to centrosomes and kinetochores in HeLa cells; experiment: Immunostaining of Plk1 localization and spindle morphology in HeLa cells; type: cell-based; conditions: 25 μM, 2 h
Protocol: HeLa cells were cultured as recommended by the American Type Culture Collection (ATCC). Asynchronously growing cells were treated with control DMSO or the indicated concentration of 143. To reveal chromosome morphologies, cells were treated with 4′,6-diamidino-2-phenylindole (DAPI), fixed, and subjected to confocal microscopy. Immunostaining was carried out using anti-Plk1 (Santa Cruz Biotechnology, Santa Cruz, CA), anti-Cep63 (MilliporeSigma), anti-CREST (Antibodies Incorp, Davis, CA), and anti-α-tubulin (Sigma, St. Louis, MO) antibodies. Confocal images were acquired using a Zeiss LSM780 equipped with a plan-apochromat 63× (N.A. 1.4) oil-immersion objective lens, 34-channel GaAsP spectral detector (Carl Zeiss Microscopy, LLC.), and 8-bit, 0.5-μm z-steps.
as §1
To directly examine whether the observed mitotic arrest was the consequence of inhibiting Plk1 PBD function, immunostaining analysis was carried out to determine the ability of intracellular Plk1 to localize to centrosomes and kinetochores, an event that requires PBD-mediated protein-protein interaction (Lee et al., Trends Pharmacol. Sci. 36, 858-877 (2015); and Elia et al., Cell 115, 83-95 (2003)). […] A short treatment time (i.e., 2 h), which was intended to minimize a potential indirect effect of these inhibitors, was sufficient to delocalize greater than 70% of Plk1 signals from centrosomes (marked by anti-Cep63 signals) and 90% of those from kinetochores (marked by anti-CREST signals).

[13] = In vitro stability in mice (mouse liver microsome assay); type: in vitro ADME; conditions: liver microsomes, pH 7.4, read-out: t1/2 in vitro
Protocol: The reaction was stopped by an aliquot of 200 μL of ice-cold acetonitrile after 60 min. After centrifugation at 14 000×g for 10 min, a 5 μL aliquot of the supernatant was injected into a UHPLC-[…]. […] A trace amount of the subsequent glucuronide of the demethylated metabolite was also seen in the serum, as it could be promptly excreted from the liver to the bile, once generated, and can then undergo enterohepatic circulation through which the demethylated product is reabsorbed to the circulation. This could also serve as an explanation for the increased demethylated metabolite at the last time point.

[14] = target: full-length human Plk1 (Homo sapiens (Human), UniProt P53350); experiment: ELISA-based Plk1 PBD-binding inhibition assay; conditions: Plk1 PBD; n = 3 unless noted
full-length human Plk1, sequence (P53350 whole entry): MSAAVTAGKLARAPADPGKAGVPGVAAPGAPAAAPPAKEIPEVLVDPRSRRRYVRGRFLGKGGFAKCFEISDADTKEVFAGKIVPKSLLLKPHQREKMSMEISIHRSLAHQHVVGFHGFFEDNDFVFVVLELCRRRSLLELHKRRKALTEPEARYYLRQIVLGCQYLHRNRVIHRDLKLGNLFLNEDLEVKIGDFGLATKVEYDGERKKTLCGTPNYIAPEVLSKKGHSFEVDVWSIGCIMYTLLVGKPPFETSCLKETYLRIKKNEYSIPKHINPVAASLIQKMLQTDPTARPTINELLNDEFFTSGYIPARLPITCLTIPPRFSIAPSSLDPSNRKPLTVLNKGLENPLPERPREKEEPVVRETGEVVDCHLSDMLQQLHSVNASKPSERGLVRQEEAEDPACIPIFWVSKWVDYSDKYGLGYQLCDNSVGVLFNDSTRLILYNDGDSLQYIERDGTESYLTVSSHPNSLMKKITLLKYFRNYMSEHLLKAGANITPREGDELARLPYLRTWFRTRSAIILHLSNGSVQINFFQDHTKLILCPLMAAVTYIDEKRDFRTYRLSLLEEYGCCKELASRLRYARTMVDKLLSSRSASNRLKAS
Protocol: An ELISA-based PBD-binding inhibition assay was performed essentially as described previously. […] The wells were washed once with PBS+0.05% Tween20 (PBST) and incubated with 200 μl of PBS plus 1% BSA (blocking buffer) for 1 h to prevent non-specific binding. HEK293A lysates expressing HA-EGFP-Plk1 were prepared in a TBSN [20 mM Tris-HCl (pH 8.0), 150 mM NaCl, 0.5% NP-40, 5 mM EGTA, 2 mM MgCl2, 1.5 mM EDTA, and protease inhibitor cocktail (Roche)]+20% DMSO buffer (˜20 μg total lysates in 100 μl buffer), mixed with the indicated amount of the competitors (p-T78 peptide and its derivative compounds) for 30 min, provided onto the biotinylated peptide-coated ELISA wells, and then incubated with constant rocking for 1 h at 25° C. Following the incubation, ELISA plates were washed 5 times with PBST. To detect bound HA-EGFP-Plk1, the plates were probed for 2 h with 100 μl/well of anti-HA antibody at a concentration of 0.5 μg/ml in the blocking buffer and then washed 5 times. The plates were further probed for 1 h with 100 μl/well of HRP-conjugated secondary antibody (GE Healthcare) at a 1:1,000 dilution in the blocking buffer. The plates were washed 5 times with PBST and incubated with 100 μl/well of 3,3′,5,5′-tetramethylbenzidine solution (Sigma-Aldrich, St. Louis, MO) as substrate until a desired absorbance was reached. The reactions were stopped by the addition of 100 μl/well of stop solution (Cell Signaling Technology, Danvers, MA). The optical density (O.D.) was measured at 450 nm by using a Perkin-Elmer Enspire Multimode Plate reader (PerkinElmer, Inc., Boston, MA). Data obtained from more than three independent experiments were analyzed by GraphPad (San Diego, CA) Prism software version 7.
ELISA-based PBD-binding Inhibition Assay. […] The reaction products were measured at 450 nm by using a Perkin-Elmer Enspire Multimode Plate reader (PerkinElmer, Inc., Boston, MA). Data obtained from more than three independent experiments were analyzed by GraphPad (San Diego, CA) Prism software version 7.

[15] = Homo sapiens, L-363, 48 h treatment

Structure (SMILES): CC(=O)Nc1ccc2c(c1)c(=O)n(CCc1ccccc1)c1n[nH]c(=S)n21 [Example 14, N-(5-oxo-4-phenethyl-1-thioxo-1,2,4,5-tetrahydro-[1,2,4]triazolo[4,3-a]quinazolin-7-yl)acetamide]
population of rounded cells with mitotically arrested or apoptotic chromosome morphologies [1]: failed to show any of these phenotypes
Cell efficacy, GI50 ± sd (μM) ([2]; 48 h treatment): failed to induce any a detectable level of cellular response

Structure (SMILES): O=c1c2cc(F)ccc2n2c(=S)[nH]nc2n1CCc1ccc(Cl)cc1 [Example 43, 4-(4-chlorophenethyl)-7-fluoro-1-thioxo-2,4-dihydro-[1,2,4]triazolo[4,3-a]quinazolin-5(1H)-one]
population of rounded cells with mitotically arrested or apoptotic chromosome morphologies [1]: failed to show any of these phenotypes
Cell efficacy, GI50 ± sd (μM) ([2]; 48 h treatment): failed to induce any a detectable level of cellular response

Structure (SMILES): CCCn1c(=O)c2cc(F)ccc2n2c(=S)[nH]nc12 [compound 64, 7-fluoro-4-propyl-1-thioxo-2,4-dihydro-[1,2,4]triazolo[4,3-a]quinazolin-5(1H)-one]
half-life [5]: > 2 h
induction of mitotic arrest (rounded cells with apoptotic or aberrant chromosome morphologies) [1]: lacked a detectable level of cellular response
Solub. ([3]; aqueous solubility): >28 µg/mL
half-life [6]: > 2 h
half-life [7]: > 2 h
PAMPA [11]: 195 ×10⁻⁶ cm/s
half-life [8]: > 2 h
half-life [9]: 2 h
half-life [10]: > 2 h
t1/2 (min, RLM) ([4]; rat liver microsomes): >30 min

Structure (SMILES): CCCn1c(=O)c2cccc(F)c2n2c(=S)[nH]nc12 [compound 139, 9-fluoro-4-propyl-1-thioxo-2,4-dihydro-[1,2,4]triazolo[4,3-a]quinazolin-5(1H)-one]
induction of mitotic arrest (rounded cells with apoptotic or aberrant chromosome morphologies) [1]: lacked a detectable level of cellular response

Structure (SMILES): CCCn1c(=O)c2scc(C)c2n2c(Sc3c([N+](=O)[O-])ncn3C)nnc12 [74 (NCK170), 8-methyl-1-((1-methyl-4-nitro-1H-imidazol-5-yl)thio)-4-propylthieno[2,3-e][1,2,4]triazolo[4,3-a]pyrimidin-5(4H)-one]
GI50 [2, 15]: 25.8 ± 0.26 µM

Structure (SMILES): CCCn1c(=O)c2cc(F)ccc2n2c(SC)nnc12 [compound 144, 7-fluoro-1-(methylthio)-4-propyl-[1,2,4]triazolo[4,3-a]quinazolin-5(4H)-one]
half-life [5]: > 2 h
induction of mitotic arrest (rounded cells with apoptotic or aberrant chromosome morphologies) [1]: induced mitotic arrest but at a somewhat reduced level
half-life [6]: > 2 h
half-life [7]: 0.241 h
half-life [8]: > 2 h
half-life [9]: 0.439 h
half-life [10]: 0.176 h

Structure (SMILES): CCCn1c(=O)c2sc(C)cc2n2c(Sc3c(C(F)(F)F)ncn3C)nnc12 [76 (NCK174), 7-methyl-1-((1-methyl-4-(trifluoromethyl)-1H-imidazol-5-yl)thio)-4-propylthieno[2,3-e][1,2,4]triazolo[4,3-a]pyrimidin-5(4H)-one]
GI50 [2, 15]: > 400 µM

Structure (SMILES): CCCn1c(=O)c2ccccc2n2c(=S)[nH]nc12 [compound 21, 4-propyl-1-thioxo-2,4-dihydro-[1,2,4]triazolo[4,3-a]quinazolin-5(1H)-one]
half-life [5]: > 2 h
induction of mitotic arrest (rounded cells with apoptotic or aberrant chromosome morphologies) [1]: lacked a detectable level of cellular response
Solub. ([3]; aqueous solubility): 21.3 µg/mL
half-life [6]: > 2 h
half-life [7]: > 2 h
IC50 [14]: 1.03 ± 0.08 µM
half-life [8]: > 2 h
half-life [9]: > 2 h
half-life [10]: > 2 h
half-life ([4]; rat liver microsomes): > 0.5 h

Structure (SMILES): C[C@H]1C[C@@H]1n1c(=O)c2cc(F)ccc2n2c(=S)[nH]nc12 [compound 80]
t1/2 Rat cytosol [5]: >2 h
Solub. ([3]; aqueous solubility): 13.2 µg/mL
t1/2 Mouse cytosol [6]: >2 h
PAMPA: 188 ×10⁻⁶ cm/s
t1/2 Human LM [7]: 0.8472 h
t1/2 Human cytosol [8]: >2 h
t1/2 Rat LM [9]: >2 h
t1/2 Mouse LM [10]: 1.7515 h
t1/2 (min, RLM) ([4]; rat liver microsomes): >30 min

Continued, in another order:

Solub. ([3]; aqueous solubility): 10.9 µg/mL
GI50 ([2]; 48 h treatment): 3.11 µM
t1/2 (min, RLM) ([4]; rat liver microsomes): >30 min
Structure (SMILES): O=c1c2cc(F)ccc2n2c(=S)[nH]nc2n1CCc1ccncc1 [compound 85]
population of rounded cells with mitotically arrested or apoptotic chromosome morphologies [1]: induced Plk1 delocalization and mitotic arrest at a level similar to those of compound 75

t1/2 Rat cytosol [5]: >2 h
Solub. ([3]; Free base): 27 µg/mL
Solub. ([3]; TFA salt): > 43 µg/mL
t1/2 Mouse cytosol [6]: >2 h
t1/2 Human LM [7]: >2 h
t1/2 Human cytosol [8]: >2 h
t1/2 Rat LM [9]: 1.7728 h
t1/2 Mouse LM [10]: >2 h
t1/2 (min, RLM) ([4]; Free base): >30^c >30^d min
t1/2 (min, RLM) ([4]; TFA salt): >30^c >30^d min
Structure (SMILES): NCCCn1c(=O)c2cc(F)ccc2n2c(=S)[nH]nc12 [compound 68]

Solub. ([3]; aqueous solubility): >53 µg/mL
GI50 ([2]; 48 h treatment): 4.1 µM
t1/2 (min, RLM) ([4]; rat liver microsomes): >30 min
Structure (SMILES): CS(=O)(=O)NCCn1c(=O)c2cc(F)ccc2n2c(=S)[nH]nc12 [compound 75]
population of rounded cells with mitotically arrested or apoptotic chromosome morphologies [1]: approximately 60%
Plk1 signals delocalized from centrosomes [12]: greater than 70%
Plk1 signals delocalized from kinetochores [12]: > 90%
effect on Plk1 localization [12]: greatly diminished Plk1 signal intensities at both centrosomes and kinetochores

half-life at 20 µM [13]: 0.363 ± 0.101 h
Structure (SMILES): CCCn1c(=O)c2cccc(F)c2n2c(SC)nnc12 [compound 145, 9-fluoro-1-(methylthio)-4-propyl-[1,2,4]triazolo[4,3-a]quinazolin-5(4H)-one]

GI50 [2, 15]: 14 ± 0.39 µM
Structure (SMILES): CCCn1c(=O)c2cccc(F)c2n2c(Sc3c([N+](=O)[O-])ncn3C)nnc12 [73 (NCK167), 9-fluoro-1-((1-methyl-4-nitro-1H-imidazol-5-yl)thio)-4-propyl-[1,2,4]triazolo[4,3-a]quinazolin-5(4H)-one]
